Series [1] can be described thus: Cytotoxicity assay (Alamar Blue). In kind it is cell-based. To be noted: mouse, J774.A1 macrophage cell line (ATCC TIB-67), murine macrophage J774.A1. As to the method:
The activity of the crude extract, different subfractions and isolated compounds were evaluated against promastigotes of Leishmania amazonensis (MHOM/BR/77/LTB0016) and epimastigotes Trypanosoma cruzi (Y strain). Cytotoxicity assay of the active compounds was tested against the murine macrophage J774.A1 cell line (ATCC # TIB-67). […]
In general terms: Resazurin is reduced to fluorescent resorufin, in cell work by metabolically active cells.

Series [2] concerns epimastigotes Trypanosoma cruzi (Y strain). As to the kind of experiment: Trypanocidal capacity assay (Alamar Blue). In kind it is cell-based. To be noted: epimastigote form; for IC50: 96 h. As for the experimental part: (§1) Bioassay-guided fractionation of the crude extract yielded six dolabellanes 1–6. Their in vitro antiprotozoal activity was evaluated applying serial dilutions of the compounds, and IC50 were calculated using the Alamar Blue reagent reaction.
(§2) The activity of the crude extract, different subfractions and isolated compounds were evaluated against promastigotes of Leishmania amazonensis (MHOM/BR/77/LTB0016) and epimastigotes Trypanosoma cruzi (Y strain). Cytotoxicity assay of the active compounds was tested against the murine macrophage J774.A1 cell line (ATCC # TIB-67).
The activity was evaluated in vitro against epimastigote stage of Trypanosoma cruzi. Different concentrations of fractions and compounds were incubated in 96 wells plate for 96 h with a density of 10^5 parasite/well. 10% of Alamar blue was added to each well and the IC50 was calculated. All assays have been realized in triplicate.

Series [3] concerns promastigotes of Leishmania amazonensis (MHOM/BR/77/LTB0016). The series can be described thus: Leishmanicidal capacity assay (Alamar Blue). It counts as cell-based. The following applies: promastigote form; for IC50: Leishmania amazonensis. As to the method: as §1, §2
Logarithmic phase cultures of Leishmania amazonensis were used for experimental purposes, and the in vitro susceptibility assay was performed in sterilized 96-well plates. 10^6/well parasites were added to wells containing different concentration of the drug to be tested. Percentages of inhibition, 50% inhibitory concentrations (IC50) for active compounds were calculated by linear regression analysis using the Alamar Blue method.

Series [4] deals with promastigote form of L. amazonensis. Further details: method as in PMID 22970332. The following applies: promastigotes; cited from earlier work.

Where only a bound is given, the exact number is not on record here.

As usually defined, the CC50 is the concentration at which the toxic effect on the cells reaches its halfway point. Higher therefore signals better tolerance by the cells. Broadly, the IC50 is the concentration that gives 50% inhibition.

Compound `O=C(Cn1ccnc1[N+](=O)[O-])NCc1ccccc1` [Benznidazole, reference compound] returned a CC50 at 24 h in series [1] of 400 ± 4 µM. Moreover, the results for the IC50 in series [2] (Trypanosoma cruzi) and in series [2] were 6.95 µM and 6.94 ± 1.94 µM, respectively.
The compound `CCCCCCCCCCCCCCCCOP(=O)([O-])OCC[N+](C)(C)C` [Miltefosine, reference compound] gave a half-maximal cytotoxic concentration (CC50) at 24 h in series [1] of 72.2 ± 3.06 µM.
Compound `C=C(C)C1CCC2(C)CC=C(C)CCC=C(C=O)C(O)CC12` (stereo not shown) [Spiralyde A (1), Spiralyde A] yielded a CC50 at 24 h in series [1] of 23.4 ± 5.62 µM. Further, the IC50 in series [3] was determined as 15.5 ± 0.26 µM; in series [2] (Trypanosoma cruzi), 5.62 ± 2.48 µM.
For `C=C(C)[C@H]1CC[C@]2(C)C[C@@H]3O[C@@]3(C)CC/C=C(\C)CC[C@@H]12` [compound 2, (1R,3S,4S,7E,11S,12S)-3,4-Epoxy-7,18-dolabelladiene], the half-maximal cytotoxic concentration (CC50) at 24 h in series [1] was found to be 69.98 ± 0.14 µM. Further, in series [3], the half-maximal inhibitory concentration (IC50) came out at 36.8 ± 5.2 µM and the “antikinetoplastid activity against Leishmania amazonensis (in words)” value is given as “moderate activity”. This compound also returned a half-inhibitory concentration (IC50) in series [2] (Trypanosoma cruzi) of 35.3 ± 4.09 µM. Besides, the “antikinetoplastid activity against Trypanosoma cruzi (in words)” value in series [2] is recorded as “moderate activity”.
In the case of `C=C(C)[C@H]1C[C@H](O)[C@]2(C)C[C@@H]3O[C@@]3(C)CC/C=C(\C)CC[C@@H]12` [compound 3, (1R,3S,4S,7E,11S,12S,14S)-3,4-Epoxy-14-hydroxy-7,18-dolabelladiene], in series [3], the half-inhibitory concentration (IC50) is over 100 µM and the “antikinetoplastid activity against Leishmania amazonensis (in words)” value was “inactive”. This compound also showed an IC50 in series [2] (Trypanosoma cruzi) of over 100 µM. The “antikinetoplastid activity against Trypanosoma cruzi (in words)” value in series [2] is “inactive”.
Turning to `C=C(C)[C@H]1CC(=O)[C@]2(C)C[C@@H]3O[C@@]3(C)CC/C=C(\C)CC[C@@H]12` [compound 4, (1R,3S,4S,7E,11S,12S)-3,4-Epoxy-14-oxo-7,18-dolabelladiene], in series [3], the IC50 is over 100 µM and the “antikinetoplastid activity against Leishmania amazonensis (in words)” value was “inactive”. In series [2] (Trypanosoma cruzi), this compound returned an IC50 of over 100 µM. Besides, the “antikinetoplastid activity against Trypanosoma cruzi (in words)” value in series [2] was “inactive”.
Regarding `C=C(C)[C@H]1CC(=O)[C@]2(C)C/C=C(\C)CC/C=C(\C)CC[C@@H]12` [compound 5, (1R,3E,7E,11S,12S)-14-Oxo-3,7,18-dolabellatriene], the IC50 in series [3] and in series [2] (Trypanosoma cruzi) was over 100 µM throughout.
Regarding `C=C(C)C1CC(=O)C2(C)CC=C(C)CCC=C(C)CCC12` [compound 6, (1R,3Z,7E,11S,12S)-14-Oxo-3,7,18-dolabellatriene], the IC50 in series [3] and in series [2] (Trypanosoma cruzi) was over 100 µM in each case.
Regarding `C[C@H]1/C=C/[C@@]2(C)CC[C@@H](C(C)(C)O)[C@@H]2[C@@H](O)C[C@](C)(O)/C=C/C1` [dolabelladienetriol (9), dolabelladienetriol], the half-inhibitory concentration (IC50) in series [4] was 44 µM.

Source of the values: article PMC6471066, “Spiralyde A, an Antikinetoplastid Dolabellane from the Brown Alga Dictyota spiralis” (Marine Drugs, 2019).
